The target in the assay is T1, PyAly (Pyropia yezoensis, UniProt D2KX85, H125A/Y223A).
T1 construct: single-domain PL7 lyase; E. coli BL21(DE3), pET32a; tag cleaved; residues built 27-241
Kind of assay: X-ray crystal structure, […] A. Conditions: cocrystallized at 10:1 molar ratio; complete M5 at subsites -2 to +3. It counts as binding.

Each structure is given as a SMILES string.

T1 sequence (D2KX85 entry or part of it H125A/Y223A): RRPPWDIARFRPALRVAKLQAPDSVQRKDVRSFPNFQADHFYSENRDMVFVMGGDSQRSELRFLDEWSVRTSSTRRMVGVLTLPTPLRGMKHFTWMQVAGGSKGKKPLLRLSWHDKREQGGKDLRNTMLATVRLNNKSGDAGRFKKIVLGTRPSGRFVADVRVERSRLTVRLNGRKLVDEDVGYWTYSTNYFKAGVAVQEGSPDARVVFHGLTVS

Turning to `O=C(O)[C@H]1O[C@@H](O[C@H]2[C@H](O)[C@H](O)[C@H](O[C@H]3[C@H](O)[C@H](O)[C@H](O[C@H]4[C@H](O)[C@H](O)[C@H](O[C@H]5[C@H](O)[C@H](O)C(O)O[C@@H]5C(=O)O)O[C@@H]4C(=O)O)O[C@@H]3C(=O)O)O[C@@H]2C(=O)O)[C@@H](O)[C@@H](O)[C@@H]1O` (stereo partly shown) [M5], the “X-ray crystal structure, 1.70 A” value is “structure of the PyAly^H125A_Y223A-M5 complex presented the complete M5 substrate”.
